The NIST ThermoML archive (doi:10.1016/j.jct.2015.01.006)
Numbers after ± are expanded uncertainties.

Assay: mn = molality of the nth substance listed, in mol/kg
Details: 298.15 K, 100 kPa, Liquid, Vibrating tube method

[O]=[Re](=[O])(=[O])[OH] [perrhenic acid] + O
Details	mass density [kg/m3]
m1 = 0.15	1027.57 ± 4.1
m1 = 0.31	1057.54 ± 4.2
m1 = 0.46	1087.27 ± 4.4
m1 = 0.6	1115.28 ± 4.5
m1 = 0.75	1143.92 ± 4.6
m1 = 0.89	1169.78 ± 4.7
m1 = 1.03	1195.77 ± 4.8
m1 = 1.17	1220.36 ± 4.9
m1 = 1.31	1245.59 ± 5
m1 = 1.45	1270.29 ± 5.1
m1 = 1.58	1292.96 ± 5.2
m1 = 1.71	1316 ± 5.3
m1 = 1.93	1361.24 ± 5.5
m1 = 2.38	1429.34 ± 5.8
m1 = 3.33	1584.96 ± 6.5
m1 = 3.78	1649.71 ± 6.8
m1 = 4.08	1693.28 ± 6.9
m1 = 4.29	1716.22 ± 7
m1 = 4.63	1782.41 ± 7.3
m1 = 4.72	1791.73 ± 7.4
m1 = 4.96	1821.44 ± 7.5
m1 = 5.23	1856.73 ± 7.7
m1 = 5.45	1877.16 ± 7.8
m1 = 5.66	1910.98 ± 8
m1 = 5.92	1933.4 ± 8.1
m1 = 6.06	1957.44 ± 8.2
m1 = 6.26	1978.54 ± 8.3
m1 = 6.5	2025.89 ± 8.5
m1 = 6.8	2054.75 ± 8.7
m1 = 7.05	2069.04 ± 8.7
m1 = 7.13	2085.82 ± 8.8
m1 = 7.42	2107.74 ± 8.9
m1 = 7.44	2117.26 ± 9
m1 = 7.65	2134.62 ± 9.1
m1 = 7.86	2153.7 ± 9.2
m1 = 7.95	2166.62 ± 9.3
m1 = 8.2	2192.45 ± 9.4
m1 = 11.82	2516.75 ± 11
